Test results: the OPERA property sets (Mansouri et al. 2018)
In brackets after ≈: the same amount, converted by molar mass.

Conditions: for solubility: 25 °C

Row | SMILES | logP | solubility [mM]
1 | CC(=O)OCCCCCc1ccc(S(N)(=O)=O)cc1 | 1.86 | 
2 | NS(=O)(=O)c1ccc(SCCCO)c(F)c1 | 0.99 | 3.39 (≈ 900 µg/mL)
3 | Nc1cc(S(N)(=O)=O)ccc1S(=O)(=O)CCCO | -0.48 | 
4 | NS(=O)(=O)c1ccc(SCCO)c([N+](=O)[O-])c1 | 0.38 | 1.8 (≈ 500 µg/mL)
5 | NS(=O)(=O)c1ccc(S(=O)(=O)CCCCO)c(F)c1 | -0.26 | 
6 | CC(C)(O)CCSc1ccc(S(N)(=O)=O)cc1 | 1.4 | 1.45 (≈ 400 µg/mL)
7 | NS(=O)(=O)c1ccc(SCCO)c(F)c1 | 0.72 | 23.9 (≈ 6000 µg/mL)
8 | NS(=O)(=O)c1ccc(SCCO)cc1 | 0.36 | 15 (≈ 3500 µg/mL)
9 | CC(=O)OCCS(=O)(=O)c1ccc(S(N)(=O)=O)s1 | 0.11 | 
10 | NS(=O)(=O)c1ccc(S(=O)(=O)CCCO)cc1 | -0.64 | 25.8 (≈ 7200 µg/mL)
11 | COC(=O)c1cc(S(N)(=O)=O)ccc1S(=O)(=O)CCO | -0.47 | 
12 | Nc1cc(S(N)(=O)=O)ccc1S(=O)(=O)CCO | -0.6 | 
13 | NS(=O)(=O)c1ccc(S(=O)(=O)CCCO)s1 | -0.36 | 
14 | COC(=O)c1cc(S(N)(=O)=O)ccc1S(=O)(=O)CCCO | -0.3 | 
15 | NS(=O)(=O)c1ccc(CCCO)cc1 | 0.17 | 92.9 (≈ 20000 µg/mL)
16 | NS(=O)(=O)c1ccc(SCCCCCO)cc1 | 1.04 | 2.18 (≈ 600 µg/mL)
17 | NS(=O)(=O)c1ccc(SCCCO)c([N+](=O)[O-])c1 | 0.96 | 0.342 (≈ 100 µg/mL)
18 | CC(C)CNCCS(=O)(=O)c1ccc(S(N)(=O)=O)cc1 | 0.23 | 

Row | SMILES | logP | solubility [mM]
19 | NS(=O)(=O)c1ccc(SCCCO)c(Cl)c1 | 1.59 | 
20 | CC(=O)OCCCS(=O)(=O)c1ccc(S(N)(=O)=O)s1 | 0.17 | 
21 | NS(=O)(=O)c1ccc(CCCCCO)cc1 | 1.04 | 10.7 (≈ 2600 µg/mL)
22 | NS(=O)(=O)c1ccc(SCCCCO)cc1 | 0.93 | 3.06 (≈ 800 µg/mL)
23 | NS(=O)(=O)c1ccc(SCCCCO)s1 | 0.95 | 34.8 (≈ 9300 µg/mL)
24 | COCC(=O)OCCCS(=O)(=O)c1ccc(S(N)(=O)=O)s1 | -0.14 | 
25 | NS(=O)(=O)c1ccc(SCCCO)s1 | 0.85 | 
26 | NS(=O)(=O)c1ccc(S(=O)(=O)CCO)cc1 | -0.85 | 24.9 (≈ 6600 µg/mL)
27 | CC(=O)OCCCc1ccc(S(N)(=O)=O)cc1 | 0.98 | 
28 | CC(C)(O)CCS(=O)(=O)c1ccc(S(N)(=O)=O)cc1 | -0.09 | 11.4 (≈ 3500 µg/mL)
29 | NS(=O)(=O)c1ccc(S(=O)(=O)CCCCO)s1 | -0.34 | 
30 | NS(=O)(=O)c1ccc(S(=O)(=O)CCCO)c(F)c1 | -0.41 | 22.2 (≈ 6600 µg/mL)
31 | COC(=O)c1cc(S(N)(=O)=O)ccc1SCCCO | 0.74 | 
32 | NS(=O)(=O)c1ccc(SCCCO)cc1 | 0.8 | 5.66 (≈ 1400 µg/mL)
33 | NS(=O)(=O)c1ccc(SCCCCO)c(F)c1 | 1.28 | 3.58 (≈ 1000 µg/mL)
34 | NS(=O)(=O)c1ccc(CCCCO)cc1 | 0.57 | 64.1 (≈ 14700 µg/mL)
35 | NS(=O)(=O)c1ccc(S(=O)(=O)CCO)c(F)c1 | -0.6 | 11.6 (≈ 3300 µg/mL)
36 | NS(=O)(=O)c1ccc(S(=O)(=O)CCCCO)cc1 |  | 7.16 (≈ 2100 µg/mL)
